Results from article PMC8296573, “Synthesis and Biological Evaluation of Fingolimod Derivatives as Antibacterial Agents” (ACS Omega, 2021).
In brackets after ≈: the same amount, converted by molar mass. Like-named read-outs stand apart in the source and are kept apart here.

Key:
S. aureus P2 = assay: Antibacterial activity, pre-exposure; type: cell-based, Staphylococcus aureus; settings: for MIC / inhibition at 5 µM / inhibition at 10 µM / inhibition at 15 µM / inhibition at 25 µM: Staphylococcus aureus; for MIC: P2; for Average inhibition %, biofilms viability / Average inhibition %, planktonic cells viability / inhibition at 5 µM / inhibition at 10 µM / inhibition at 15 µM / inhibition at 25 µM / Average inhibition %, biofilms biomass / Average inhibition %, planktonic cells turbidity: S. aureus P2, pre-exposure, ± SD
Summary of the method: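 Read-outs were turbidity and resazurin reduction for planktonic cells, and resazurin followed by crystal violet biomass (A595) for biofilms. Compounds were present from inoculation onward, with 18 h aerobic growth at 37 °C under shaking.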

[1] = Cytotoxicity, resazurin staining assay; type: cell-based, human; settings: human, 24 h incubation
Method: The cytotoxicity of the compounds was assessed on the three different human cell lines, A549, HEp-2, and HL-60, using the redox-based resazurin staining assay. The cells were seeded in clear 96-well plates at a density of 1 × 10^4 cells per well in a volume of 200 μL per well. The adherent cells were let to attach for 24 h before changing the media and adding the compounds (final concentration of 0.25% DMSO). HL-60 were counted and added to the plates at a density of 1 × 10^4 cells per well in a volume of 200 μL directly with the compounds. Untreated cells were used as negative controls, and cells treated with 1% TritonX-100 (Sigma-Aldrich, St. Louis, MO) were used as positive controls for cytotoxicity. The cells were incubated with the compounds for 24 h.
For the resazurin assay, the media was first removed, and the adherent cells were washed once with PBS. Then, 200 μL of 20 μM resazurin was added per well and cells were incubated for two more hours before the measurement of fluorescence, as mentioned earlier. For HL-60, 10 μL of 400 μM resazurin was added directly to the wells and the cells were incubated for an additional 4 h before the measurement of fluorescence.

[2] = Colloidal aggregation by nephelometry; type: physicochemical; settings: 25 µM
Method: 3. Aggregation data (Figure S3)
Potential colloidal aggregation in biological assays was studied at five concentrations (5 µM, 10 µM, 15 µM,
25 µM, 50 µM). The original assay conditions were simulated, and the light scattering of potential aggregates
in the mixture was studied by nephelometric methods using Nepheloskan Ascent (Labsystems, Finland).
Aggregation of the blank and compounds fingolimod, 43, 45, 55, 62, 79 and 82 were measured as triplicates
from one independent experiment at 400 V and at room temperature.
formation at 50 µM. […] However, at 15
µM, 10 µM and 5 µM, the obtained values were close to those observed by blank, therefore indicating only
minor or no detectable aggregation.
Figure S3: Aggregation data for fingolimod and compounds 43, 45, 55, 62, 79, 82. RNU = relative nephelometric unit.
The data are shown as the mean ± SD and normalized to the blank.
(1 picture or pasted object on this page, not shown here)

[3] = 5 µM, read-out: Average inhibition %, biofilms biomass
[4] = 5 µM, read-out: Average inhibition %, planktonic cells turbidity
[5] = 10 µM, read-out: Average inhibition %, biofilms biomass
[6] = 10 µM, read-out: Average inhibition %, planktonic cells turbidity
[7] = 15 µM, read-out: Average inhibition %, biofilms biomass
[8] = 15 µM, read-out: Average inhibition %, planktonic cells turbidity
[9] = 25 µM, read-out: Average inhibition %, biofilms biomass
[10] = 25 µM, read-out: Average inhibition %, planktonic cells turbidity

Row | Molecule | MIC (S. aureus P2; pre-exposure, 18 h) [µM] | CC50 at 24 h ([1]; A549 cells) [µM] | CC50 at 24 h ([1]; HEp-2 cells) [µM] | CC50 at 24 h ([1]; HL-60 cells) [µM] | Average inhibition %, biofilms viability (S. aureus P2; 5 µM) [%] | Average inhibition %, planktonic cells viability (S. aureus P2; 5 µM) [%] | Average inhibition %, biofilms viability (S. aureus P2; 10 µM) [%] | Average inhibition %, planktonic cells viability (S. aureus P2; 10 µM) [%] | Average inhibition %, biofilms viability (S. aureus P2; 15 µM) [%] | Average inhibition %, planktonic cells viability (S. aureus P2; 15 µM) [%] | Average inhibition %, biofilms viability (S. aureus P2; 25 µM) [%] | Average inhibition %, planktonic cells viability (S. aureus P2; 25 µM) [%] | inhibition at 5 µM (S. aureus P2; [3]) [%] | inhibition at 5 µM (S. aureus P2; [4]) [%] | inhibition at 10 µM (S. aureus P2; [5]) [%] | inhibition at 10 µM (S. aureus P2; [6]) [%] | inhibition at 15 µM (S. aureus P2; [7]) [%] | inhibition at 15 µM (S. aureus P2; [8]) [%] | inhibition at 25 µM (S. aureus P2; [9]) [%] | inhibition at 25 µM (S. aureus P2; [10]) [%] | other results
1 | CCCCCCCCCCc1ccc2nc(CC(N)(CO)CO)ccc2c1 [Compound 83, 2-Amino-2-[(6-decylquinolin-2-yl)methyl]propane-1,3-diol] | 10 (≈ 3.73 µg/mL) | – | – | – | – | – | – | – | – | – | – | – | – | – | – | – | – | – | – | – | –
2 | CCCCCCCCc1ccc2cc(CC(N)(CO)CO)ccc2c1 [Compound 79, 2-Amino-2-[(6-octylnaphthalen-2-yl)methyl]propane-1,3-diol] | 10 (≈ 3.44 µg/mL) | > 40 | > 40 | 26.9 ± 1.6 | 49.4 ± 34.5 | 45.3 ± 32.9 | 99.4 ± 0 | 99.6 ± 0 | 99.4 ± 0 | 99.6 ± 0.1 | 99.5 ± 0 | 99.6 ± 0.1 | 63.6 ± 23.6 | 45.4 ± 35.4 | 95.8 ± 2.2 | 99.5 | 97.3 ± 0.5 | 99.4 ± 0.1 | 96.4 ± 1.3 | 99.1 ± 0.2 | Aggregation (nephelometry) [2]: potential aggregation
3 | CCCCCCCCc1cccc(CCC(N)(CO)CO)c1 [Compound 43, 2-Amino-2-(3-octylphenethyl)propane-1,3-diol] | – | > 40 | > 40 | 23.4 ± 3.2 | – | – | – | – | – | – | – | – | – | – | – | – | – | – | – | – | Aggregation (nephelometry) [2]: potential aggregation
4 | CCCCCCCCc1ccc2ccc(CC(N)(CO)CO)nc2c1 [Compound 82, 2-Amino-2-[(7-octylquinolin-2-yl)methyl]propane-1,3-diol] | 10 (≈ 3.44 µg/mL) | 27.5 ± 3 | 28.8 ± 1.8 | 6.5 ± 0.8 | 23.7 ± 8.8 | 1 ± 1.8 | 99.5 ± 0 | 99.8 ± 0 | 99.8 ± 0 | 99.6 ± 0 | 99.7 ± 0.1 | 99.5 ± 0 | 39.9 ± 7 | 5 ± 2.2 | 97.6 ± 0.4 | 99.6 | 97.2 ± 0.8 | 99.7 | 96.4 ± 0.6 | 99.4 ± 0.1 | –
5 | CCCCCCCCc1ccc(CCC(N)(CO)CO)cc1 [fingolimod, Fingolimod] | 15 (≈ 4.61 µg/mL) | > 40 | > 40 | 36.1 ± 13.4 | 18.2 ± 17 | 4.3 ± 7.4 | 55.4 ± 38 | 45 ± 45.6 | 99.8 ± 0 | 99.8 ± 0 | 99.8 ± 0.1 | 99.7 ± 0 | 34.9 ± 19 | 3.3 ± 5.8 | 64.3 ± 29.1 | 39.5 ± 45.1 | 98.3 ± 0.1 | 99.6 | 98 ± 0.4 | 99.3 ± 0.1 | Aggregation (nephelometry) [2]: potential aggregation
6 | CCCCCCCCCCc1ccc(C(O)CC(N)(CO)CO)cc1 (stereo not drawn) [Compound 55, 3-Amino-3-(hydroxymethyl)-1-(4-decylphenyl)butane-1,4-diol] | 10 (≈ 3.52 µg/mL) | 35.3 ± 5.1 | 33.9 ± 1.2 | 7.4 ± 6.9 | 32.1 ± 8.5 | 3.4 ± 5.8 | 99.4 ± 0.2 | 99.8 ± 0 | 99.6 ± 0 | 99.6 ± 0.1 | 99.6 ± 0 | 99.5 ± 0.1 | 23.6 ± 10.9 | 14 ± 3 | 96.5 ± 0.7 | 99.6 ± 0.1 | 95.1 ± 0.2 | 99.3 ± 0.1 | 91.6 ± 1.2 | 98.8 ± 0.2 | –
7 | CCCCCCCCc1ccc2nc(CCC(N)(CO)CO)ccc2c1 [Compound 80, 2-Amino-2-[2-(6-octylquinolin-2-yl)ethyl]propane-1,3-diol] | 10 (≈ 3.59 µg/mL) | – | – | – | 45.2 ± 2.1 | 20.6 ± 21.6 | 99.5 ± 0.1 | 99.7 ± 0.2 | 99.5 ± 0 | 99.6 ± 0.1 | 99.5 ± 0 | 99.5 ± 0.1 | 57.3 ± 10.2 | 3.3 ± 5.4 | 95.4 ± 2.9 | 99.6 ± 0.1 | 95.3 ± 0.8 | 99.3 | 90.6 ± 1 | 98.8 ± 0.2 | –
8 | 2-Amino-2-(4-decylbenzyl)propane-1,3-diol [Compound 45] | – | – | – | – | 69.6 ± 37.8 | 70 ± 36.1 | 99.6 ± 0 | 99.8 ± 0 | 99.6 ± 0 | 99.7 ± 0.1 | 99.6 ± 0 | 99.6 ± 0.1 | – | – | – | – | – | – | – | – | Average inhibition %, biofilms biomass (S. aureus P2; 5 µM): 74.6 ± 24.7%; Average inhibition %, planktonic cells turbidity (S. aureus P2; 5 µM): 74.4 ± 34.2%; Average inhibition %, biofilms biomass (S. aureus P2; 10 µM): 97.6 ± 0.3%; Average inhibition %, planktonic cells turbidity (S. aureus P2; 10 µM): 99.4 ± 0.1%; Average inhibition %, biofilms biomass (S. aureus P2; 15 µM): 96.9 ± 1.4%; Average inhibition %, planktonic cells turbidity (S. aureus P2; 15 µM): 99.1 ± 0.1%; Average inhibition %, biofilms biomass (S. aureus P2; 25 µM): 97.6 ± 0.3%; Average inhibition %, planktonic cells turbidity (S. aureus P2; 25 µM): 98.6 ± 0.1%; MIC S. aureus P2 (S. aureus P2; pre-exposure, 18 h): 5 to 10 µM; Aggregation (nephelometry) [2]: potential aggregation
9 | CCCCCCCCCCc1ccc(CCC(N)(CO)CO)nc1 [Compound 62, 2-Amino-2-[2-(5-decylpyridin-2-yl)ethyl]propane-1,3-diol] | – | 27.6 ± 6.4 | 30.9 ± 6.2 | 3.6 ± 0.4 | – | – | – | – | – | – | – | – | – | – | – | – | – | – | – | – | –
10 | CCCCCCCCCCc1ccc2nc(CCC(N)(CO)CO)ccc2c1 [Compound 81, 2-Amino-2-[2-(6-decylquinolin-2-yl)ethyl]propane-1,3-diol] | – | – | – | – | 37.3 ± 3.3 | 42.9 ± 19.7 | 99.6 ± 0.1 | 99.6 ± 0.2 | 99.6 ± 0 | 99.6 ± 0.1 | 99.6 ± 0 | 99.6 ± 0.2 | 48.4 ± 15.7 | 0 | 96.6 ± 0.4 | 99.8 ± 0.1 | 94.5 ± 0.6 | 99.7 ± 0.1 | 89.1 ± 0.6 | 99.2 ± 0.2 | –
